Source: publication PMC10855066, “Anti-Inflammatory and Antioxidant Pyrrolo[3,4-d]pyridazinone Derivatives Interact with DNA and Bind to Plasma Proteins—Spectroscopic and In Silico Studies” (International Journal of Molecular Sciences, 2024)

Tested on: T1, α1-acid-glycoprotein (AAG); orosomucoid
T1 construct: gene ORM1; docking only used 3kq0
Experiment: intrinsic fluorescence quenching, excitation […] nm
Assay type: binding
Conditions: double-log; 297 K, 0.01 M phosphate buffer pH 7.4, 1.0 µM AAG, ligand stock in EtOH, inner filter corrected

| Binding / Kb.10^4 [dm^3.mol^-1] | SMILES |
| --- | --- |
| 3.09 × 10^4 dm^3·mol^−1 | CCCCn1c(C)c2c(OCc3nn(CN4CCN(c5ccccc5)CC4)c(=S)o3)nn(C)c(=O)c2c1C [compound 1, pyrrolo[3,4-d]pyridazinone derivative 1] |
| 4.57 × 10^4 dm^3·mol^−1 | CCCCn1c(C)c2c(OCc3nn(CN4CCC(O)(c5ccc(Cl)cc5)CC4)c(=S)o3)nn(C)c(=O)c2c1C [compound 2, pyrrolo[3,4-d]pyridazinone derivative 2] |
| 4.57 × 10^4 dm^3·mol^−1 | Cc1c2c(OCc3nn(CN4CCN(c5ccccc5)CC4)c(=S)o3)nn(C)c(=O)c2c(C)n1-c1ccccc1 [compound 3, pyrrolo[3,4-d]pyridazinone derivative 3] |
| 5.01 × 10^4 dm^3·mol^−1 | Cc1c2c(OCc3nn(CN4CCN(c5ccc([N+](=O)[O-])cc5)CC4)c(=S)o3)nn(C)c(=O)c2c(C)n1-c1ccccc1 [compound 4, pyrrolo[3,4-d]pyridazinone derivative 4] |
| 1.41 × 10^4 dm^3·mol^−1 | Cc1c2c(OCc3nn(CN4CCC(O)(c5ccc(Cl)cc5)CC4)c(=S)o3)nn(C)c(=O)c2c(C)n1-c1ccccc1 [compound 5, pyrrolo[3,4-d]pyridazinone derivative 5] |
